Measurements from patent publication US8058290B2, “7-substituted aza-indazoles, compositions containing same, production method and use thereof” (Aventis Pharma S.A., priority 2005, dated 2011).
Structures can show the parent of a compound that is named as a salt.

Assays:
Type in all cases: biochemical
human Tie2 = target: T1, human Tie2 (Homo sapiens, UniProt Q02763); experiment: Tie2 PLC phosphorylation assay (GST-Tie2, FlashPlate); conditions: GST-Tie2 intracellular domain, 2 μM cold ATP, 1 hour at 37° C.; read-out: IC 50 Tie2
T1 construct: corresponding to the intracellular domain amino acids 776-1124 was generated by PCR; made in house; host or cells: baculovirus expression (pFastBacGT)
T1 sequence (Q02763 776-1124): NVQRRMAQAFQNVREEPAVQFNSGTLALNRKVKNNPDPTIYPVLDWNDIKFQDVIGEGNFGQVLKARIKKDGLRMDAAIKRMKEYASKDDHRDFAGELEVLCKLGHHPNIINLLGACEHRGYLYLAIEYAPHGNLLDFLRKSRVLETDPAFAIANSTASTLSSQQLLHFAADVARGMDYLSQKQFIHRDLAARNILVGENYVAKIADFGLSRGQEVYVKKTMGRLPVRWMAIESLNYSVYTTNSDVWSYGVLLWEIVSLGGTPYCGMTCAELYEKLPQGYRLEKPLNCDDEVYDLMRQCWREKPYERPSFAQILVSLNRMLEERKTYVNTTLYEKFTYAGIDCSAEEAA
Method: The human Tie2 coding sequence corresponding to the intracellular domain amino acids 776-1124 was generated by PCR using the cDNA isolated from human placenta as model. This sequence was introduced into a baculovirus expression vector pFastBacGT in the form of a GST fusion protein.
The inhibitory effect of the molecules is determined in an assay of PLC phosphorylation by Tie2 in the presence of GST-Tie2 purified to approximately 80% of homogeneity. The substrate is composed of the SH2-SH3 fragments of PLC expressed in the form of a GST fusion protein.
The kinase activity of Tie2 is measured in a 20 mM MOPS buffer, pH 7.2, containing 10 mM MgCl2, 10 mM MnCl2, 1 mM DTT and 10 mM of glycerophosphate. In a FlashPlate 96-well plate kept on ice, a reaction mixture composed of 70 μl of kinase buffer containing 100 ng of GST-Tie2 enzyme is deposited per well. 10 μl of the test molecule diluted, in DMSO, to a concentration of at most 10% are subsequently added. For a given concentration, each measurement is carried out in quadruplicate. The reaction is initiated by adding 20 μl of solution containing 2 μg of GST-PLC, 2 μM of cold ATP and 1 μCi of ^33P[ATP]. After incubation for 1 hour at 37° C., the reaction is stopped by adding 1 volume (100 μl) of EDTA at 200 mM. After removal of the incubation buffer, the wells are washed three times with 300 μl of PBS. The radioactivity is measured on a Wallac MicroBeta1450.
The inhibition of the Tie2 activity is calculated and expressed as percentage inhibition relative to the control activity determined in the absence of compound.

human KDR enzyme = target: T2, human KDR enzyme (Homo sapiens, UniProt P35968); experiment: KDR substrate phosphorylation assay (scintillation, 96-well plate); conditions: cytoplasmic domain of human KDR as GST fusion, 2 μM cold ATP, 1 hour at 37° C.
T2 construct: The cytoplasmic domain of the human KDR enzyme was cloned in the form of a GST fusion; GST; made in house; host or cells: SF21 insect cells (baculovirus, pFastBac)
T2 sequence (P35968 786-1356 limits assumed): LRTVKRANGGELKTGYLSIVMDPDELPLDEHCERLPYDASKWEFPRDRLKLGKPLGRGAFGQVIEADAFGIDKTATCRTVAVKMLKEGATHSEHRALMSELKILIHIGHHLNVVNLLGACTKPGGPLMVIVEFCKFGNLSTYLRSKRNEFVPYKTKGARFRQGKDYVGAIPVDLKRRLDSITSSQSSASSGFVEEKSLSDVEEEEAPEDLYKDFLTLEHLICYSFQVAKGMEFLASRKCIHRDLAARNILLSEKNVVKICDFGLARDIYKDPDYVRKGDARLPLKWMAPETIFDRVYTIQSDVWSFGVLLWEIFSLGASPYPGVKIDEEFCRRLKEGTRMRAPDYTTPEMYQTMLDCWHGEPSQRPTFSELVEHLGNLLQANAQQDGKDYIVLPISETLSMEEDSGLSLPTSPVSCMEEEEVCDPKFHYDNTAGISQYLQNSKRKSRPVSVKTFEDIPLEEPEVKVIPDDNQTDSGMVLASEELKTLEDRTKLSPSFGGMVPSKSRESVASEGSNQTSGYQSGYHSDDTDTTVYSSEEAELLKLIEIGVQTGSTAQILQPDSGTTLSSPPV
Method: 2. KDR The inhibitory effect of the compounds is determined in an assay of substrate phosphorylation by the KDR enzyme in vitro using a scintillation technique (96-well plate, NEN). The cytoplasmic domain of the human KDR enzyme was cloned in the form of a GST fusion into the baculovirus expression vector pFastBac. The protein was expressed in SF21 cells and purified to approximately 60% homogeneity. The kinase activity of KDR is measured in 20 mM MOPS, 10 mM MgCl2, 10 mM MnCl2, 1 mM DTT, 2.5 mM EGTA and 10 mM b-glycerophosphate, pH=7.2, in the presence of 10 mM MgCl2, 100 μM Na3VO4 and 1 mM NaF. 10 μl of the compound are added to 70 μl of kinase buffer containing 100 ng of KDR enzyme at 4° C. The reaction is initiated by adding 20 μl of solution containing 2 μg of substrate (SH2-SH3 fragment of PLCγ expressed in the form of a GST fusion protein), 2 μCi γ^33P[ATP] and 2 μM cold ATP. After incubation for 1 hour at 37° C., the reaction is stopped by adding 1 volume (100 μl) of 200 mM EDTA. The incubation buffer is removed, and the wells are washed three times with 300 μl of PBS. The radioactivity is measured in each well using a Top Count NXT radioactivity counter (Packard). The background noise is determined by measuring the radioactivity in four different wells containing radioactive ATP and the substrate alone. A total activity control is measured in four different wells containing all the reactants (γ^33P-[ATP], KDR and PLCγ substrate) but in the absence of compound. The inhibition of the KDR activity with the compound of the invention is expressed as percentage inhibition of the control activity determined in the absence of compound. The compound SU5614 (Calbiochem) (1 μM) is included in each plate as an inhibition control.

human FAK = target: T3, human FAK (Homo sapiens, UniProt Q05397); experiment: FAK autophosphorylation time resolved fluorescence assay (HTRF); conditions: 15 μM ATP, 1 hour at 37° C.
T3 construct: The complete cDNA of human FAK, the N-terminal end of which had been labelled with histidine; made in house; host or cells: baculovirus expression (pFastBac HTc)
T3 sequence (Q05397 whole entry): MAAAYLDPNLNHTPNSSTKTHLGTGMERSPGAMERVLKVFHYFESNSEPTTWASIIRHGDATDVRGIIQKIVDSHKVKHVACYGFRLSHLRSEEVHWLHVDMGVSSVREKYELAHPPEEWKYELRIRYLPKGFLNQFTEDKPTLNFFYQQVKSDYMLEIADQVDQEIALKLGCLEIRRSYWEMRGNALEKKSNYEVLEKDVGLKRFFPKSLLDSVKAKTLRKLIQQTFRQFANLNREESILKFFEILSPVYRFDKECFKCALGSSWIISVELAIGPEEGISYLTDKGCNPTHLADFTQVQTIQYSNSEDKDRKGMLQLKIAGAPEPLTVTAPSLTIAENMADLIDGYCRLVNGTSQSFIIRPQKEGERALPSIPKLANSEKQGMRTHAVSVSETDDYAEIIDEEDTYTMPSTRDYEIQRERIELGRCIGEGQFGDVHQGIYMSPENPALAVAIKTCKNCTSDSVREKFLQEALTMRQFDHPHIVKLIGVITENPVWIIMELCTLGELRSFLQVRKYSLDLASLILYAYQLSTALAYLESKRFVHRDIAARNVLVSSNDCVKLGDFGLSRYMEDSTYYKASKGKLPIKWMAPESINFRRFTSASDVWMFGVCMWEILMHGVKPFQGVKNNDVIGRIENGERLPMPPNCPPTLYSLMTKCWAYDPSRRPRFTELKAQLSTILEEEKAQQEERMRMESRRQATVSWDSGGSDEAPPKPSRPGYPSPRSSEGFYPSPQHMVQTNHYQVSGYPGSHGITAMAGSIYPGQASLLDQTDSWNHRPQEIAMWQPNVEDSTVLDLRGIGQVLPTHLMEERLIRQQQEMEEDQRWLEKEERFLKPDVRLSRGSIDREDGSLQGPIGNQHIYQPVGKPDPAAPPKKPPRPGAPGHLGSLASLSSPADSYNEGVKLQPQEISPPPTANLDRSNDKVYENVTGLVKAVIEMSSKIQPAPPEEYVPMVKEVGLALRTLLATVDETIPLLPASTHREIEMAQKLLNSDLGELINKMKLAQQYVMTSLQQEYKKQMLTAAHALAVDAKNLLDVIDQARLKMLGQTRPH
Method: Determination of the Activity of the Compounds—Experimental Protocols 1. FAK
The inhibitory activity of the compounds on FAK is determined by measuring the inhibition of autophosphorylation of the enzyme using a time resolved fluorescence assay (HTRF).
The complete cDNA of human FAK, the N-terminal end of which had been labelled with histidine, was cloned into a baculovirus expression vector pFastBac HTc. The protein was expressed and purified to approximately 70% homogeneity.
The kinase activity is determined by incubating the enzyme (6.6 μg/ml) with various concentrations of test compound in a 50 mM Hepes buffer, pH=7.2, containing 10 mM MgCl2, 100 μM Na3VO4, and 15 μM of ATP for 1 hour at 37° C. […] The XL-665-specific long-lasting signal is measured in a Packard Discovery plate counter. All the assays were carried out in duplicate and the mean of the two assays is calculated. The inhibition of the FAK autophosphorylation activity with compounds of the invention is expressed as percentage inhibition relative to a control, the activity of which is measured in the absence of test compound. […]

SMILES	IC50 (human Tie2) [nM]	IC50 (human KDR enzyme) [nM]	IC50 (human FAK) [nM]
Nc1n[nH]c2nc(-c3ccc(NC(=O)Nc4cc(C(F)(F)F)ccc4F)cc3)ccc12 [Example 1, 1-[4-(3-Amino-1H-pyrazolo[3,4-b]pyridin-6-yl)phenyl]-3-(2-fluoro-5-trifluoromethylphenyl)urea]	192	119	
O=C(Nc1ccc(-c2ccc3c(NC(=O)c4ccsc4)n[nH]c3n2)cc1)Nc1cc(C(F)(F)F)ccc1F [Example 2, Thiophene-3-carboxylic acid (6-{4-[3-(2-fluoro-5-trifluoromethylphenyl)ureido]phenyl}-1H-pyrazolo[3,4-b]pyridin-3-yl)amide]	7	6	
Nc1n[nH]c2nc(-c3ccc(NS(=O)(=O)c4cccc(Cl)c4Cl)cc3)ccc12 [Example 3, N-[4-(3-Amino-1H-pyrazolo[3,4-b]pyridin-6-yl)phenyl]-2,3-dichlorobenzenesulphonamide]	75		
CNC(=O)c1cc(-c2ccc(NS(=O)(=O)c3cccc(Cl)c3Cl)cc2)nc2[nH]ncc12 [Example 5]	13		
O=C(Nc1ccccc1)Nc1ncc(-c2cc(C(=O)NCCN3CCOCC3)c3cn[nH]c3n2)s1 [Example 9]	443	6820	
CNC(=O)c1cc(-c2ccc(NC(=O)Nc3cc(C(F)(F)F)ccc3F)nc2)nc2[nH]ncc12 [Example 20]	777		
O=C(Nc1ccc(-c2cc(C(=O)NCCN3CCOCC3)c3cn[nH]c3n2)cn1)Nc1cc(C(F)(F)F)ccc1F [Example 21]	6030		
O=C(Nc1ncc(-c2cc(C(=O)NCc3ccncc3)c3cn[nH]c3n2)s1)Nc1cc(C(F)(F)F)ccc1F [Example 28]	105	4660	
CNC(=O)c1cc(-c2cccc(NC(=O)Nc3cc(C(F)(F)F)ccc3F)c2)nc2[nH]ncc12 [Example 33]	2700		
O=C(Nc1cccc(-c2cc(C(=O)NCCN3CCOCC3)c3cn[nH]c3n2)c1)Nc1cc(C(F)(F)F)ccc1F [Example 34]	4140		
O=C(Nc1ccc(C(F)(F)F)cc1)Nc1ncc(-c2cc(C(=O)NCCN3CCOCC3)c3cn[nH]c3n2)s1 [Example 55]	88	3540	

More lines, now with the values ahead:

IC50 (human Tie2) [nM]	IC50 (human KDR enzyme) [nM]	IC50 (human FAK) [nM]	SMILES
1	83	343	O=C(Nc1ncc(-c2cc(C(=O)NCCN3CCOCC3)c3cn[nH]c3n2)s1)Nc1cc(C(F)(F)F)ccc1F [Example 4, 6-{2-[3-(2-Fluoro-5-trifluoromethylphenyl)ureido]thiazol-5-yl}-1H-pyrazolo[3,4-b]pyridine-4-carboxylic acid (2-morpholin-4-ylethyl)amide trifluoroacetate]
8	581	927	CNC(=O)c1cc(-c2cnc(NC(=O)Nc3cc(C(F)(F)F)ccc3F)s2)nc2[nH]ncc12 [Example 11]
30	2360		CN(C)CCNC(=O)c1cc(-c2cnc(NC(=O)Nc3cc(C(F)(F)F)ccc3F)s2)nc2[nH]ncc12 [Example 12]
4	373		CN(C)CC(C)(C)CNC(=O)c1cc(-c2cnc(NC(=O)Nc3cc(C(F)(F)F)ccc3F)s2)nc2[nH]ncc12 [Example 13]
7	293		O=C(Nc1ncc(-c2cc(C(=O)NCCc3cnc[nH]3)c3cn[nH]c3n2)s1)Nc1cc(C(F)(F)F)ccc1F [Example 14]
2	70		O=C(Nc1ncc(-c2cc(C(=O)N3CCOCC3)c3cn[nH]c3n2)s1)Nc1cc(C(F)(F)F)ccc1F [Example 15]
7	200		O=C(Nc1ncc(-c2cc(C(=O)N3CCNCC3)c3cn[nH]c3n2)s1)Nc1cc(C(F)(F)F)ccc1F [Example 16]
1	46		CN1CCN(C(=O)c2cc(-c3cnc(NC(=O)Nc4cc(C(F)(F)F)ccc4F)s3)nc3[nH]ncc23)CC1 [Example 17]
4	511		O=C(Nc1ncc(-c2cc(C(=O)NCCCN3CCOCC3)c3cn[nH]c3n2)s1)Nc1cc(C(F)(F)F)ccc1F [Example 22]
6	527		O=C(Nc1ncc(-c2cc(C(=O)NCCN3CCNCC3)c3cn[nH]c3n2)s1)Nc1cc(C(F)(F)F)ccc1F [Example 23]
2	133		O=C(Nc1ncc(-c2cc(C(=O)NCCC3CCNCC3)c3cn[nH]c3n2)s1)Nc1cc(C(F)(F)F)ccc1F [Example 24]
3	387		O=C(Nc1ncc(-c2cc(C(=O)NCCO)c3cn[nH]c3n2)s1)Nc1cc(C(F)(F)F)ccc1F [Example 26]
3	160		O=C(Nc1ncc(-c2cc(C(=O)NCc3ccccn3)c3cn[nH]c3n2)s1)Nc1cc(C(F)(F)F)ccc1F [Example 29]
9	647		O=C(Nc1ncc(-c2cc(C(=O)NCCCN3CCCC3CO)c3cn[nH]c3n2)s1)Nc1cc(C(F)(F)F)ccc1F (stereo not shown) [Example 31]
